We go through 18 molecules from US11780826B2 (Amgen Inc., priority 2017, dated 2023).

This test concerns Bovine cardiac myofibrils. Description: In vitro model of dose-dependent myofibril ATPase modulation (AC1.4, pyruvate kinase/lactate dehydrogenase-coupled ATPase assay at pCa25). Type of test: biochemical. The note with it: concentration at which ATPase activity was 1.4-fold higher than the bottom of the dose curve, mean of a minimum of two independent tests. In short, it runs like this: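 Bovine cardiac myofibrils, detergent-treated; 0.25-1.0 mg/ml. Buffer: K-PIPES 12 mM, MgCl2 2 mM, DTT 1 mM, BSA 0.1 mg/ml, pH 6.80, 22° C; Ca2+ set by EGTA/CaCl2. ATP 1 mM, NADH/PEP-coupled, A340. 4-parameter fit; n≥2.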
As to `CN1CCN(S(=O)(=O)N2CC(C#N)C2)CC1C(=O)N1CCC[C@@H]1C(=O)NCc1ccc(C(F)(F)F)cc1` (stereo partly drawn) [Example 639, (2R)-1-(4-((3-cyanoazetidin-1-yl)sulfonyl)-1-methylpiperazine-2-carbonyl)-N-(4-(trifluoromethyl)benzyl)pyrrolidine-2-carboxamide], the AC1.4 turned out to be 4.1855 µM.

`COC(=O)CS(=O)(=O)c1cccc(C(=O)N2[C@@H](C(=O)N[C@@H](c3cc(F)c(C(F)(F)F)cc3F)C3CC3)C[C@H]3C[C@H]32)c1` [Example 80, methyl((3-(((1R,3R,5R)-3-(((R)-cyclopropyl(2,5-difluoro-4-(trifluoromethyl)phenyl)methyl)carbamoyl)-2-azabicyclo[3.1.0]hexan-2-yl)carbonyl)phenyl)sulfonyl)acetate] registered an AC1.4 of 0.1046 µM. The value for `CCS(=O)(=O)c1cccc(C(=O)N2[C@@H](C(=O)N[C@@H](c3cc(F)c(C(F)F)cc3F)C3CC3)C[C@H]3C[C@H]32)c1` [Example 178, (1R,3R,5R)-N-((R)-cyclopropyl(4-(difluoromethyl)-2,5-difluorophenyl)methyl)-2-(3-(ethylsulfonyl)benzoyl)-2-azabicyclo[3.1.0]hexane-3-carboxamide] was 0.314 µM; that for `CCS(=O)(=O)c1ccnc(C(=O)N2[C@@H](C(=O)N[C@@H](c3cc(F)c(Cl)cc3F)C3CC3)C[C@H]3C[C@H]32)c1` [Example 133, (1R,3R,5R)-N-((R)-(4-chloro-2,5-difluorophenyl)(cyclopropyl)methyl)-2-((4-(ethylsulfonyl)-2-pyridinyl)carbonyl)-2-azabicyclo[3.1.0]hexane-3-carboxamide] was 0.2186 µM; that for `COc1cc(F)c([C@H](NC(=O)[C@H]2C[C@H]3C[C@H]3N2C(=O)c2cccc(S(C)(=O)=O)c2)C2CC2)cc1F` [Example 747, (1R,3R,5R)-N-((R)-cyclopropyl(2,5-difluoro-4-methoxyphenyl)methyl)-2-(3-(methylsulfonyl)benzoyl)-2-azabicyclo[3.1.0]hexane-3-carboxamide] was 7.287 µM. To `O=C(N[C@@H](c1cc(F)c(Cl)cc1F)C1CC1)[C@H]1C[C@@H](O)CN1C(=O)c1cncc(C(F)(F)F)c1` [Example 641, (4R)-N-((R)-(4-chloro-2,5-difluorophenyl)(cyclopropyl)methyl)-4-hydroxy-1-((5-(trifluoromethyl)-3-pyridinyl)carbonyl)-D-prolinamide] belongs 4.262 µM; to `CS(=O)(=O)c1cccc(C(=O)N2[C@@H](C(=O)N[C@@H](c3cc(F)c(Cl)c(F)c3)C3CC3)C[C@H]3C[C@H]32)c1` [Example 278, (1R,3R,5R)-N-((R)-(4-chloro-3,5-difluorophenyl)(cyclopropyl)methyl)-2-(3-(methylsulfonyl)benzoyl)-2-azabicyclo[3.1.0]hexane-3-carboxamide], 0.7012 µM. The value for `O=C(NCc1ccc(C(F)(F)F)cc1)[C@H]1CCCN1C(=O)[C@H]1CCCN(S(=O)(=O)N2CC3(CCO3)C2)C1` [Example 654, (R)-1-((S)-1-(1-oxa-6-azaspiro[3.3]heptan-6-ylsulfonyl)piperidine-3-carbonyl)-N-(4-(trifluoromethyl)benzyl)pyrrolidine-2-carboxamide] was 4.538 µM; that for `N#CC1CN(S(=O)(=O)N2CCC[C@H](C(=O)N3CCC[C@@H]3C(=O)N[C@@H](CO)c3ccc(Cl)c(F)c3)C2)C1` [Example 441, N-((1R)-1-(4-chloro-3-fluorophenyl)-2-hydroxyethyl)-1-(((3S)-1-((3-cyano-1-azetidinyl)sulfonyl)-3-piperidinyl)carbonyl)-D-prolinamide] was 1.7265 µM. For the molecule `Cc1cc(C(=O)N2[C@@H](C(=O)N[C@@H](c3cc(F)c(Cl)cc3F)C3COC3)C[C@H]3C[C@H]32)cc(S(C)(=O)=O)c1` [Example 140, (1R,3R,5R)-N-((R)-(4-chloro-2,5-difluorophenyl)(3-oxetanyl)methyl)-2-(3-methyl-5-(methylsulfonyl)benzoyl)-2-azabicyclo[3.1.0]hexane-3-carboxamide], the AC1.4 is 0.2351 µM. To `CS(=O)(=O)N1CCN[C@H](C(=O)N2[C@@H](C(=O)N[C@@H](c3cc(F)c(Cl)cc3F)C3CC3)C[C@H]3C[C@H]32)C1` [Example 724, (1R,3R,5R)-N-((R)-(4-chloro-2,5-difluorophenyl)(cyclopropyl)methyl)-2-(((2S)-4-(methylsulfonyl)-2-piperazinyl)carbonyl)-2-azabicyclo[3.1.0]hexane-3-carboxamide] belongs 6.475 µM; to `O=C(N[C@@H](c1ccc(C(F)(F)F)cc1F)C1CC1)[C@H]1CCCN1C(=O)c1cccc(-c2ccsc2)c1` [Example 726, N-((R)-cyclopropyl(2-fluoro-4-(trifluoromethyl)phenyl)methyl)-1-(3-(3-thiophenyl)benzoyl)-D-prolinamide], 6.547 µM; to `NC(=O)C1(c2cccc(C(=O)N3[C@@H](C(=O)N[C@@H](c4ccc(C(F)(F)F)cc4F)C4COC4)C[C@H]4C[C@H]43)c2)CC1` [Example 349, (1R,3R,5R)-2-(3-(1-carbamoylcyclopropyl)benzoyl)-N-((R)-(2-fluoro-4-(trifluoromethyl)phenyl)(3-oxetanyl)methyl)-2-azabicyclo[3.1.0]hexane-3-carboxamide], 1.0296 µM.

Molecule `CS(=O)(=O)C1CN(S(=O)(=O)N2CCC[C@H](C(=O)N3CCC[C@@H]3C(=O)NCc3ccc(C(F)(F)F)cc3)C2)C1` [Example 72, 1-(((3S)-1-((3-(methylsulfonyl)-1-azetidinyl)sulfonyl)-3-piperidinyl)carbonyl)-N-(4-(trifluoromethyl)benzyl)-D-prolinamide] registered an AC1.4 of 0.09025 µM. `CS(=O)(=O)c1cccc(C(=O)N2[C@@H](C(=O)N[C@@H](c3ccc(Cl)c(F)c3)C3COC3)C[C@H]3C[C@H]32)c1` [Example 264, (1R,3R,5R)-N-((R)-(4-chloro-3-fluorophenyl)(3-oxetanyl)methyl)-2-(3-(methylsulfonyl)benzoyl)-2-azabicyclo[3.1.0]hexane-3-carboxamide] returned an AC1.4 of 0.6615 µM. In turn, `O=C(N[C@@H](c1cc(F)c(Cl)cc1F)C1COC1)[C@H]1C[C@H]2C[C@H]2N1C(=O)c1cccc(S(=O)(=O)CCO)c1` [Example 94, (1R,3R,5R)-N-((R)-(4-chloro-2,5-difluorophenyl)(3-oxetanyl)methyl)-2-(3-((2-hydroxyethyl)sulfonyl)benzoyl)-2-azabicyclo[3.1.0]hexane-3-carboxamide] registered an AC1.4 of 0.1425 µM. The value for `N#CC1CN(S(=O)(=O)N2CCC[C@H](C(=O)N3CCC[C@@H]3C(=O)NCc3ccc(Cl)c(C(F)(F)F)c3)C2)C1` [Example 333, N-(4-chloro-3-(trifluoromethyl)benzyl)-1-(((3S)-1-((3-cyano-1-azetidinyl)sulfonyl)-3-piperidinyl)carbonyl)-D-prolinamide] was 0.921 µM; that for `CCS(=O)(=O)c1cccc(C(=O)N2[C@@H](C(=O)N[C@@H](c3ccc(C(F)(F)F)cc3)C3(O)CCC3)C[C@H]3C[C@H]32)c1` [Example 522, (1R,3R,5R)-2-(3-(ethylsulfonyl)benzoyl)-N-((S)-(1-hydroxycyclobutyl)(4-(trifluoromethyl)phenyl)methyl)-2-azabicyclo[3.1.0]hexane-3-carboxamide] was 2.4145 µM.
